Data as given in patent publication US11939307B2, “Phenylmethyl-piperazine derivatives and antiviral uses thereof” (INSTITUTE OF MEDICINAL BIOTECHNOLOGY, CHINESE ACADEMY OF …, priority 2019, dated 2024).

These compounds were tested on HCV (assay: Assay of anti-HCV activity in HCV-infected Huh7.5 cells (intracellular HCV RNA by one-step quantitative RT-PCR)). Details: Hepatitis C virus; compound at 1 μM; Huh7.5 cells infected with HCV; 96 hrs; intracellular HCV RNA vs viral control; read-out: inhibitory activities (inhibitory levels of the compounds against HCV replication).
Assay type: cell-based
Experimental: 100 μL Huh7.5 cells were seeded at a density of 1×10^5/mL in a 96-well cell culture plate and incubated in an incubator at 37° C., 5% CO2 and saturated humidity for 6 hrs. Then, while infecting Huh7.5 cells with viral solution containing HCV virus particles, the compounds of the present invention (including all specific compounds listed herein) were added at a concentration of 1 μM, respectively. After continuing incubation for 96 hrs, the total intracellular RNA was extracted separately, and the content of intracellular HCV RNA was measured by one-step quantitative RT-PCR, compared with the RNA level of the viral control, and the inhibition rate of the compounds against HCV was calculated.
`CC(c1ccc(Br)cc1)N1CCN(Cc2cc(N3CCCN(C)CC3)ccc2C(F)(F)F)CC1` (stereo not drawn) [Compound 1, 1-(3-((4-(1-(4-bromophenyl)ethyl)piperazin-1-yl)methyl)-4-(trifluoromethyl)phenyl)-4-methyl-1,4-diazepane] showed an inhibition at 1 µM greater than 75%.
In the case of `CN1CCCN(c2ccc(C(F)(F)F)c(CN3CCN(Cc4ccc(Cl)cc4)CC3)c2)CC1` [Compound 2, 1-(3-((4-(4-chlorobenzyl)piperazin-1-yl)methyl)-4-(trifluoromethyl)phenyl)-4-methyl-1,4-diazepane], the inhibition at 1 µM is reported as greater than 75%.
`CC(c1ccc(F)c(Cl)c1)N1CCN(Cc2cc(N3CCCN(C)CC3)ccc2C(F)(F)F)CC1` (stereo not drawn) [Compound 3, 1-(3-((4-(1-(3-chloro-4-fluorophenyl)ethyl)piperazin-1-yl)methyl)-4-(trifluoromethyl)phenyl)-4-methyl-1,4-diazepane] gave an inhibition at 1 µM greater than 75%.
Compound `Cc1cc(CN2CCN(Cc3cc(N4CCCN(C)CC4)ccc3C(F)(F)F)CC2)ccc1Cl` [Compound 4, 1-(3-((4-(4-chloro-3-methylbenzyl)piperazin-1-yl)methyl)-4-(trifluoromethyl)phenyl)-4-methyl-1,4-diazepane] has an inhibition at 1 µM greater than 75%.
`CCCC(c1ccc(OC)cc1)N1CCN(Cc2cc(N3CCCN(C)CC3)ccc2C(F)(F)F)CC1` (stereo not drawn) [Compound 5, 1-(3-((4-(1-(4-methoxyphenyl)butyl)piperazin-1-yl)methyl)-4-(trifluoromethyl)phenyl)-4-methyl-1,4-diazepane] showed an inhibition at 1 µM greater than 75%.
`CN1CCN(c2ccc(C(F)(F)F)c(CN3CCN(Cc4ccc(Cl)c(Cl)c4)CC3)c2)CC1` [Compound 6, 1-(3,4-dichlorobenzyl)-4-(5-(4-methylpiperazin-1-yl)-2-(trifluoromethyl)benzyl)piperazine] showed an inhibition at 1 µM greater than 75%.
With `CN1CCCN(c2ccc(C(F)(F)F)c(CN3CCC(Cc4ccc(Cl)cc4)CC3)c2)CC1` [Compound 7, 1-(3-((4-(4-chlorobenzyl)piperidin-1-yl)methyl)-4-(trifluoromethyl)phenyl)-4-methyl-1,4-diazepane] the inhibition at 1 µM was 50 to 75%.
In the case of `CCC(c1ccc(Br)cc1)N1CCN(Cc2cc(N(C)CCN(C)C)ccc2C(F)(F)F)CC1` (stereo not drawn) [Compound 8, N^1-(3-((4-(1-(4-bromophenyl)propyl)piperazin-1-yl)methyl)-4-(trifluoromethyl)phenyl)-N^1,N^2,N^2-trimethylethan-1,2-diamine], the inhibition at 1 µM is reported as greater than 75%.
`CC(c1ccc(Cl)cc1)N1CCN(Cc2cc(N(C)CCN(C)C)ccc2C(F)(F)F)CC1` (stereo not drawn) [Compound 9, N^1-(3-((4-(1-(4-chlorophenyl)ethyl)piperazin-1-yl)methyl)-4-(trifluoromethyl)phenyl)-N^1,N^2,N^2-trimethylethan-1,2-diamine] showed an inhibition at 1 µM greater than 75%.
`Cc1ccc(CN2CCN(Cc3cc(N(C)CCN(C)C)ccc3C(F)(F)F)CC2)cc1` [Compound 10, N^1,N^1,N^2-trimethyl-N^2-(3-((4-(4-methylbenzyl)piperazin-1-yl)methyl)-4-(trifluoromethyl)phenyl)ethan-1,2-diamine] was tested, and the inhibition at 1 µM was 50 to 75%.
`CCN1CCN(c2ccc(C#N)c(CN3CCN(Cc4ccc(Cl)c(C)c4)CC3)c2)CC1` [Compound 11, 2-((4-(4-chloro-3-methylbenzyl)piperazin-1-yl)methyl)-4-(4-ethylpiperazin-1-yl)benzonitrile] showed an inhibition at 1 µM of 50 to 75%.
For `N#Cc1ccc(N2CCN(C3CC3)CC2)cc1CN1CCN(Cc2ccc(Cl)cc2)CC1` [Compound 12, 2-((4-(4-chlorobenzyl)piperazin-1-yl)methyl)-4-(4-cyclopropylpiperazin-1-yl)benzonitrile], the inhibition at 1 µM was 50 to 75%.
With `CCN(C)CCN(C)c1ccc(C#N)c(CN2CCN(C(C)c3ccc(Cl)cc3)CC2)c1` (stereo not drawn) [Compound 13, 2-((4-(1-(4-chlorophenyl)ethyl)piperazin-1-yl)methyl)-4-((2-(ethyl(methyl)amino)ethyl)(methyl)amino)benzonitrile] the inhibition at 1 µM was greater than 75%.
In the case of `CC(c1ccccc1)N1CCN(Cc2cc(N3CCCC(N(C)C)C3)ccc2C#N)CC1` (stereo not drawn) [Compound 14, 4-(3-(dimethylamino)piperidin-1-yl)-2-((4-(1-phenylethyl)piperazin-1-yl)methyl)benzonitrile], the inhibition at 1 µM is reported as 50 to 75%.
`CC(c1ccc(C(F)(F)F)cc1)N1CCN(Cc2cc(N(C)CCN(C)C)ccc2C#N)CC1` (stereo not drawn) [Compound 15, 4-((2-(dimethylamino)ethyl)(methyl)amino)-2-((4-(1-(4-(trifluoromethyl)phenyl)ethyl)piperazin-1-yl)methyl)benzonitrile] gave an inhibition at 1 µM greater than 75%.
`CC(C)C(c1ccc(Cl)cc1)N1CCN(Cc2cc(N(C)CCN3CCCC3)ccc2C#N)CC1` (stereo not drawn) [Compound 16, 2-((4-(1-(4-chlorophenyl)-2-methylpropyl)piperazin-1-yl)methyl)-4-(methyl(2-(pyrrolidin-1-yl)ethyl)amino)benzonitrile] gave an inhibition at 1 µM greater than 75%.
Work on `CCN(CC)CCN(C)c1ccc(C#N)c(CN2CCN(Cc3ccc(F)c(Cl)c3)CC2)c1` [Compound 17, 2-((4-(3-chloro-4-fluorobenzyl)piperazin-1-yl)methyl)-4-((2-(diethylamino)ethyl)(methyl)amino)benzonitrile] yielded an inhibition at 1 µM greater than 75%.
`N#Cc1ccc(NCCCn2cccc2)cc1CN1CCN(Cc2ccc(Cl)c(Cl)c2)CC1` [Compound 18, 4-((3-(1H-pyrrol-1-yl)propyl)amino)-2-((4-(3,4-dichlorobenzyl)piperazin-1-yl)methyl)benzonitrile] was tested, and the inhibition at 1 µM was greater than 75%.
`CN(C)CCN(C)c1ccc(C(F)(F)F)c(CN2CCN(c3ccc(Cl)cc3)CC2)c1` [Compound 19, N^1-(3-((4-(4-chlorophenyl)piperazin-1-yl)methyl)-4-(trifluoromethyl)phenyl)-N^1,N^2,N^2-trimethylethan-1,2-diamine] was tested, and the inhibition at 1 µM was greater than 75%.
Work on `CN(C)CCN(C)c1ccc(C(F)(F)F)c(CN2CCN(c3ccc(Br)cc3)CC2)c1` [Compound 20, N^1-(3-((4-(4-bromophenyl)piperazin-1-yl)methyl)-4-(trifluoromethyl)phenyl)-N^1,N^2,N^2-trimethylethan-1,2-diamine] yielded an inhibition at 1 µM greater than 75%.
For `CN(CC1CCCCN1C)c1ccc(C(F)(F)F)c(CN2CCN(c3ccc(Cl)cc3)CC2)c1` (stereo not drawn) [Compound 21, 3-((4-(4-chlorophenyl)piperazin-1-yl)methyl)-N-methyl-N-((1-methylpiperidin-2-yl)methyl)-4-(trifluoromethyl)aniline], the inhibition at 1 µM was greater than 75%.
For `CC1CN(c2ccc(Cl)cc2)CCN1Cc1cc(N2CCCN(C)CC2)ccc1C(F)(F)F` (stereo not drawn) [Compound 22, 1-(3-((4-(4-chlorophenyl)-2-methylpiperazin-1-yl)methyl)-4-(trifluoromethyl)phenyl)-4-methyl-1,4-diazepane], the inhibition at 1 µM was greater than 75%.
`CN1CCCN(c2ccc(C(F)(F)F)c(CN3CCN(c4ccc(Cl)cc4)CC3)c2)CC1` [Compound 23, 1-(3-((4-(4-chlorophenyl)piperazin-1-yl)methyl)-4-(trifluoromethyl)phenyl)-4-methyl-1,4-diazepane] was tested, and the inhibition at 1 µM was greater than 75%.
For `CN(CC1CCCN1C)c1ccc(C(F)(F)F)c(CN2CCN(c3ccc(Br)cc3)CC2)c1` (stereo not drawn) [Compound 24, 3-((4-(4-bromophenyl)piperazin-1-yl)methyl)-N-methyl-N-((1-methylpyrrolidin-2-yl)methyl)-4-(trifluoromethyl)aniline], the inhibition at 1 µM was greater than 75%.
